Molecules are shown by their SMILES. pKi: −log10 of the molar value. Read-outs that look alike come from different tables or passages of the source.

The values below come from EP0289070A1, “Tertiary arylethyl amine derivatives having opiate-antagonistic activity” (DUPHAR INTERNATIONAL RESEARCH B.V, priority 1987, dated 1988).

The target of assay [1] is cholinergic muscarine receptors. The class given is binding, rat.
Assay [2] deals with (mainly u.-type) opiate receptors (Rattus norvegicus, UniProt P33535). The experiment in a line: Affinity to opiate receptors: [3H]-naloxone displacement in rat brain homogenates. The class given is binding.
Chain of (mainly u.-type) opiate receptors (P33535 whole entry): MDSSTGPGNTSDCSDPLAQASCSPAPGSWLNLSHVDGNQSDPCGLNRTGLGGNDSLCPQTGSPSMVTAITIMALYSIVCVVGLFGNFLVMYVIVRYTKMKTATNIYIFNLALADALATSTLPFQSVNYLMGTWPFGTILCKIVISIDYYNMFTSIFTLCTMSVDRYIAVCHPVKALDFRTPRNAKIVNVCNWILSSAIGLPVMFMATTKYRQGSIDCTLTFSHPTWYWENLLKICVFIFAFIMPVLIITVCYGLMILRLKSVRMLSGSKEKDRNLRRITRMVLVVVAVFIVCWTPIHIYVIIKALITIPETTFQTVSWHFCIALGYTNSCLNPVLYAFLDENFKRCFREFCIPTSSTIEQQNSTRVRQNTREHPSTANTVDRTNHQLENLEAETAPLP
The mark [3] stands for this setting: [^3H] QNB displacement expressed in Ki; homogenates of rat brains; read-out: Affinity to muscarine receptors 2).

As to `CCN(CCCC(=O)C1CCCCC1)[C@@H](C)Cc1ccc(O)cc1` [d], the pKi in assay [1] (setting [3]) was 8.39. For the same compound, the muscarinolytic activity entry in assay [1] (pure R and S isomers of racemic compound b compared) is given as “found substantially exclusively in the S isomer”.
As to `CCN(CCCC(=O)C1CCCCC1)[C@H](C)Cc1ccc(O)cc1` [c], in assay [2], the opiate-antagonistic activity result is “found substantially entirely in the R isomer”. The pKi in assay [1] (setting [3]) is 6.35.
Consider `CCN(CCCC(=O)C1CCCCC1)C(C)Cc1ccc(OC)cc1` (racemic) [g, reference compound], for which, in assay [1] (setting [3]), the pKi is 8.57.
Same read-out and setting: next, `CCCN(CCCC(=O)C1CCCCC1)C(C)Cc1ccc(O)cc1` (racemic) [a]: 8.28; `CCN(CCCC(=O)C1CCCCC1)C(C)Cc1ccc(O)cc1` (racemic) [b]: 8.02.
On the same count and under the same terms, next, `CCCC(=O)CCCN(CC)C(C)Cc1ccc(OC)cc1` (racemic) [e, reference compound]: 7.55.
`CCN(CCCC(=O)C1CCCCC1)C(C)Cc1ccc(Cl)cc1` (racemic) [f, reference compound]: in assay [1] (setting [3]), the pKi is 8.08.
Turning to `CN1[C@@H]2CC[C@H]1C[C@@H](OC(=O)C(CO)c1ccccc1)C2` (stereo partly shown) [atropine, reference compound], the pKi in assay [1] (read-out: Affinity to muscarine receptors 2)) is 8.85.
